Source: patent US12059462B2, “Composition containing influenza vaccine” (priority 2018, dated 2024)

How the values were obtained:
[1] = tested on: synthetic peptide (H3) corresponding to a portion (long alpha helix) of the stem portion; conditions: mouse, in vivo, ip
[2] = tested on: LAH binding monoclonal antibody (#2, #4 and #5); experiment: Binding capacity of antibody to LAH epitope, order of formalin treatment; conditions: FIG. 15; H3N2 strain X31; formalin treatment after (Post-fix) or before (Pre-fix) the acidic treatment

## membrane fusion-type H3N2 HA split vaccine: HA split vaccine of H3N2 influenza virus (strain X31) subjected to acidic treatment (pH 5.0), then formalin treatment
[1]
  titer of the anti-LAH antibody in the sera: higher titer of the anti-LAH antibody than the membrane fusion-type split vaccine (Pre-fix)
[2]
  binding of the LAH binding monoclonal antibody to the vaccine: more strongly than to the vaccine (Pre-fix)
